Measured values reported in US20260109732A1, “LIPID AMINES” (ModernaTX, Inc., priority 2021, published 2026).
Counter-ions that a name gives are not always drawn.

Legend:
[1] = Encapsulation of mRNA nanoparticles with lipid amines using Ribogreen assay; assay type: physicochemical
Summary of the method: (§1)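 DLS gave size and PDI, and Ribogreen gave encapsulation, for luciferase- or CFTR-mRNA nanoparticles (N:P 4.93). Particles came from IL1/DSPC/cholesterol/PEG-DMG-2K mixed at pH 4, mRNA-loaded, neutralized with TRIS pH 8.12, and then treated with lipid amine SA50 in pH 7.5 buffer.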

[2] = Diameter and PDI from DLS measurements of mRNA nanoparticles with lipid amines; assay type: physicochemical
Summary of the method: as §1

HeLa cells [3] = assay: Luciferase Protein Expression Assay in HeLa Cells; assay type: cell-based, Human; details: LNPs encapsulating Luciferase mRNA, 25 ng per well, N=4 wells; 5 h serum-free then 24 h; ONE-Glo
Summary of the method: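 Luminescence output, average RLU across N=4 wells, was measured with ONE-Glo after cell lysis. Before that, HeLa cells were exposed to 25 ng/well luciferase-mRNA nanoparticles (PBS control) for 5 h serum-free, then cultured overnight (24 h) in complete MEM.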

HeLa cells [4] = assay: CFTR Protein Expression Assay in HeLa Cells; assay type: cell-based, Human; details: LNPs encapsulating CFTR mRNA, N=4 wells; 5 h serum-free then 24 h; immunofluorescence vs PBS control
Summary of the method: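 Readout is fold-change in per-cell CFTR immunofluorescence intensity (488 nm, confocal imaging) relative to PBS-treated cells, from 4 replicate wells. LNPs encapsulating CFTR mRNA were applied serum-free for 5 h, followed by 24 h in complete medium before PFA fixation.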

[5] = CFTR mRNA nanoparticle with lipid amine
[6] = Luciferase mRNA nanoparticle modified with lipid amine

Structure (SMILES)	% Encapsulation (Ribogreen) [1, 5]	% Encapsulation (Ribogreen) [1, 6]	Diameter (nm) [2, 5]	PDI [2, 5]	Diameter (nm) [2, 6]	PDI [2, 6]	Average Relative Light Units ± Standard Deviation (HeLa cells [3])	Average fold-change in CFTR signal intensity per cell compared to buffer control ± standard deviation (HeLa cells [4])
CC(C)CCC[C@@H](C)[C@H]1CC[C@H]2[C@@H]3CC=C4C[C@@H](SSCCC(=O)N(CCCCCCCC(C)N)CCC(C)N)CC[C@]4(C)[C@H]3CC[C@]12C (stereo partly drawn) [SA172, N-(3-aminobutyl)-N-(8-aminononyl)-3-(((3S,8S,9S,10R,13R,14S,17R)-10,13-dimethyl-17-((R)-6-methylheptan-2-yl)-2,3,4,7,8,9,10,11,12,13,14,15,16,17-tetradecahydro-1H-cyclopenta[a]phenanthren-3-yl)disulfaneyl)propanamide dihydrochloride]	98.3%	99.4%	70.3 nm	0.13	74 nm	0.10	27528.4 ± 6654.4 Relative Light Units	17.8 ± 1.1 fold-change
CC(C)CCC[C@@H](C)[C@H]1CC[C@H]2[C@@H]3CC=C4C[C@@H](SSCCC(=O)N(CCC(C)N)CCC(C)N)CC[C@]4(C)[C@H]3CC[C@]12C (stereo partly drawn) [SA173, N,N-bis(3-aminobutyl)-3-(((3S,8S,9S,10R,13R,14S,17R)-10,13-dimethyl-17-((R)-6-methylheptan-2-yl)-2,3,4,7,8,9,10,11,12,13,14,15,16,17-tetradecahydro-1H-cyclopenta[a]phenanthren-3-yl)disulfaneyl)propanamide dihydrochloride]	100%	99.5%	71.8 nm	0.16	73 nm	0.18	33596.1 ± 6033 Relative Light Units	13.5 ± 0.8 fold-change
CC(C)CCC[C@@H](C)[C@H]1CC[C@H]2[C@@H]3CC=C4C[C@@H](SSCCC(=O)N(CCC(C)(C)N)CCC(C)(C)N)CC[C@]4(C)[C@H]3CC[C@]12C [SA174, N,N-bis(3-amino-3-methylbutyl)-3-(((3S,8S,9S,10R,13R,14S,17R)-10,13-dimethyl-17-((R)-6-methylheptan-2-yl)-2,3,4,7,8,9,10,11,12,13,14,15,16,17-tetradecahydro-1H-cyclopenta[a]phenanthren-3-yl)disulfaneyl)propanamide dihydrochloride]	98.1%	99.5%	71.1 nm	0.16	73 nm	0.17	31280.7 ± 5830.7 Relative Light Units	14.8 ± 1.4 fold-change
CC[C@H](CC[C@@H](C)[C@H]1CC[C@H]2[C@@H]3CC=C4C[C@@H](SSCCC(=O)N(CCCCCCCC(C)N)CCC(C)N)CC[C@]4(C)[C@H]3CC[C@]12C)C(C)C (stereo partly drawn) [SA178, N-(3-aminobutyl)-N-(8-aminononyl)-3-(((3S,8S,9S,10R,13R,14S,17R)-17-((2R,5R)-5-ethyl-6-methylheptan-2-yl)-10,13-dimethyl-2,3,4,7,8,9,10,11,12,13,14,15,16,17-tetradecahydro-1H-cyclopenta[a]phenanthren-3-yl)disulfaneyl)propanamide dihydrochloride]	100%	98.8%	83 nm	0.26	75 nm	0.20	10196.5 ± 602.4 Relative Light Units	9.8 ± 0.3 fold-change
CC[C@H](CC[C@@H](C)[C@H]1CC[C@H]2[C@@H]3CC=C4C[C@@H](SSCCC(=O)N(CCCCCCCC(C)(C)N)CCC(C)(C)N)CC[C@]4(C)[C@H]3CC[C@]12C)C(C)C [SA179, N-(3-amino-3-methylbutyl)-N-(8-amino-8-methylnonyl)-3-(((3S,8S,9S,10R,13R,14S,17R)-17-((2R,5R)-5-ethyl-6-methylheptan-2-yl)-10,13-dimethyl-2,3,4,7,8,9,10,11,12,13,14,15,16,17-tetradecahydro-1H-cyclopenta[a]phenanthren-3-yl)disulfaneyl)propanamide dihydrochloride]	99.8%	99.0%	73 nm	0.15	73 nm	0.17	12298.9 ± 928.6 Relative Light Units	7.0 ± 0.6 fold-change
CC[C@H](CC[C@@H](C)[C@H]1CC[C@H]2[C@@H]3CC=C4C[C@@H](SSCCC(=O)N(CCCCNCCC(N)(CC)CC)CCC(N)(CC)CC)CC[C@]4(C)[C@H]3CC[C@]12C)C(C)C [SA181, N-(3-amino-3-ethylpentyl)-N-(4-((3-amino-3-ethylpentyl)amino)butyl)-3-(((3S,8S,9S,10R,13R,14S,17R)-17-((2R,5R)-5-ethyl-6-methylheptan-2-yl)-10,13-dimethyl-2,3,4,7,8,9,10,11,12,13,14,15,16,17-tetradecahydro-1H-cyclopenta[a]phenanthren-3-yl)disulfaneyl)propanamide trihydrochloride]	98.7%	99.5%	69 nm	0.13	74 nm	0.16	12107.3 ± 1481.4 Relative Light Units	6.3 ± 0.4 fold-change
CC[C@H](CC[C@@H](C)[C@H]1CC[C@H]2[C@@H]3CC=C4C[C@@H](OC(=O)CCCC(=O)N(CCCCNCCC(N)(CC)CC)CCC(N)(CC)CC)CC[C@]4(C)[C@H]3CC[C@]12C)C(C)C [SA182, (3S,8S,9S,10R,13R,14S,17R)-17-((2R,5R)-5-ethyl-6-methylheptan-2-yl)-10,13-dimethyl-2,3,4,7,8,9,10,11,12,13,14,15,16,17-tetradecahydro-1H-cyclopenta[a]phenanthren-3-yl 5-((3-amino-3-ethylpentyl)(4-((3-amino-3-ethylpentyl)amino)butyl)amino)-5-oxopentanoate trihydrochloride]	98.0%	99.0%	72 nm	0.13	73 nm	0.14	38564.9 ± 12453 Relative Light Units	13.2 ± 0.9 fold-change
CC[C@H](CC[C@@H](C)[C@H]1CC[C@H]2[C@@H]3CC=C4C[C@@H](OC(=O)N(CCCCNCCC(N)(CC)CC)CCC(N)(CC)CC)CC[C@]4(C)[C@H]3CC[C@]12C)C(C)C [SA183, (3S,8S,9S,10R,13R,14S,17R)-17-((2R,5R)-5-ethyl-6-methylheptan-2-yl)-10,13-dimethyl-2,3,4,7,8,9,10,11,12,13,14,15,16,17-tetradecahydro-1H-cyclopenta[a]phenanthren-3-yl (3-amino-3-ethylpentyl)(4-((3-amino-3-ethylpentyl)amino)butyl)carbamate trihydrochloride]	99.0%	99.6%	71 nm	0.14	76 nm	0.21	33915.2 ± 6639.9 Relative Light Units	13.6 ± 0.7 fold-change
CCC(N)(CC)CCNCCCCN(CCC(N)(CC)CC)C(=O)CCSS[C@H]1CC[C@@]2(C)C(=CC[C@H]3[C@@H]4CC[C@H]([C@H](C)CCCC(C)C)[C@@]4(C)CC[C@@H]32)C1 [SA184, N-(3-amino-3-ethylpentyl)-N-(4-((3-amino-3-ethylpentyl)amino)butyl)-3-(((3S,8S,9S,10R,13R,14S,17R)-10,13-dimethyl-17-((R)-6-methylheptan-2-yl)-2,3,4,7,8,9,10,11,12,13,14,15,16,17-tetradecahydro-1H-cyclopenta[a]phenanthren-3-yl)disulfaneyl)propanamide trihydrochloride]	99.0%	98.8%	71 nm	0.13	74 nm	0.12	26222.4 ± 4612.1 Relative Light Units	11.3 ± 0.7 fold-change
